Legend:
[1] = target: T1, PAPSS2 (Homo sapiens, UniProt O95340); experiment: thermal unfolding by CD at […] nm; format: binding; conditions: about 0.5 μM protein, pH 7.3, 1 mM MgCl2, 25 °C/h
T1 sequence (O95340 1-614): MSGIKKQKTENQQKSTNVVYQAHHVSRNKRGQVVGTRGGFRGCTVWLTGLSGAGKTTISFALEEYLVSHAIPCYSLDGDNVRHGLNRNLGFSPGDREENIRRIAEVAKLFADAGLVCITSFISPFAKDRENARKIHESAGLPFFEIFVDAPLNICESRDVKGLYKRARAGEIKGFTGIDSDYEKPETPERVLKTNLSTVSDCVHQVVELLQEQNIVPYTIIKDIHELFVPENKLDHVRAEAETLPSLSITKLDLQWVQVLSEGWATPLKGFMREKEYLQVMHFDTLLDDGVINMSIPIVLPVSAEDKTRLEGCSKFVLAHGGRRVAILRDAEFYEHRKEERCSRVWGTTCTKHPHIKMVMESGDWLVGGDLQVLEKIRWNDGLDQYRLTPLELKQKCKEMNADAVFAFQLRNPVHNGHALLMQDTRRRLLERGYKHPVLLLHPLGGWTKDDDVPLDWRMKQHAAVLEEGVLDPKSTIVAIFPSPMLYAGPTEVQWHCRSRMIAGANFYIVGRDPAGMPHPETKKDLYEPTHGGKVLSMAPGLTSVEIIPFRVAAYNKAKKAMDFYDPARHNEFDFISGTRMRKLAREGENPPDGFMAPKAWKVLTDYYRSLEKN

[2] = target: T2, PAPSS1 (Homo sapiens, UniProt O43252); experiment: thermal unfolding by CD at […] nm; format: binding; conditions: about 0.5 μM protein, pH 7.3, 1 mM MgCl2, 25 °C/h
T2 sequence (O43252 1-624): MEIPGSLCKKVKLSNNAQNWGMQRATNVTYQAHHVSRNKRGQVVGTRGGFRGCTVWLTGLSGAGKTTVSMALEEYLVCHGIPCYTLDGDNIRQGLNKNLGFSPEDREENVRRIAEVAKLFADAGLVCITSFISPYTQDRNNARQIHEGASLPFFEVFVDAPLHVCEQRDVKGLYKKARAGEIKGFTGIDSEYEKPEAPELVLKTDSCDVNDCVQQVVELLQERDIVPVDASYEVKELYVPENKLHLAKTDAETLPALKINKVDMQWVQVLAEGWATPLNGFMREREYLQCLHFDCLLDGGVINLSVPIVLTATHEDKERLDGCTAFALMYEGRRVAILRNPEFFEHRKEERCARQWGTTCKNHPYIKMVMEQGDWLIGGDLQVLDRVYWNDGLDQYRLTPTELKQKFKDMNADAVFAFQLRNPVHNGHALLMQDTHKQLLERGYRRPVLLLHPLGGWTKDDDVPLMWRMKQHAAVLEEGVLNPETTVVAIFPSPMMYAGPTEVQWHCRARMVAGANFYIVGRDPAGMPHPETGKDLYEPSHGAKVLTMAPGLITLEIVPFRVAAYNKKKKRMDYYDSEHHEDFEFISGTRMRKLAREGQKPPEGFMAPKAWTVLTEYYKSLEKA

Nc1ncnc2c1ncn2[C@@H]1O[C@H](COP(=O)(O)OP(=O)(O)O)[C@@H](O)[C@H]1O [ADP]
thermal unfolding by CD at 225 nm ([1]; 100 μM ADP): moderate effects on PAPSS1 and -S2 stability were observed for ADP and PAPS
thermal unfolding by CD at 225 nm ([2]; 100 μM ADP): moderate effects on PAPSS1 and -S2 stability were observed for ADP and PAPS

Nc1ncnc2c1ncn2[C@@H]1O[C@H](COP(=O)(O)OP(=O)(O)OP(=O)(O)O)[C@@H](O)[C@H]1O [ATP]
thermal unfolding by CD at 225 nm ([1]; 100 μM ATP): ATP had a slight stabilizing effect on PAPSS2

Nc1ncnc2c1ncn2[C@@H]1O[C@H](COP(=O)(O)OS(=O)(=O)O)[C@@H](OP(=O)(O)O)[C@H]1O [PAPS]
thermal unfolding by CD at 225 nm ([1]; 50 μM PAPS): moderate effects on PAPSS1 and -S2 stability were observed for ADP and PAPS
thermal unfolding by CD at 225 nm ([2]; 50 μM PAPS): moderate effects on PAPSS1 and -S2 stability were observed for ADP and PAPS
